Source: patent US20220073521A1, “PYRIMIDINE AND FIVE-MEMBERED NITROGEN HETEROCYCLE DERIVATIVE, PREPARATION METHOD THEREFOR, AND MEDICAL USES THEREOF” (Tuojie Biotech (Shanghai) Co., Ltd., priority 2018, published 2022)
Where two headings read alike, the source gives them in different places.

What was measured:
p-ERK in KYSE-520 cells = test: Determination of p-ERK in KYSE-520 cells (HTRF); type: cell-based
Experimental: KYSE-520 cells (Nanjing Cobioer Biosciences CO., Ltd.) in the logarithmic growth phase were inoculated (30,000 cells/well) in 1640 medium containing 10% of FBS, and adhered in a 96-well plate overnight (5% CO2, 37° C.). […] The cell culture was stopped with cell lysate. The level of phosphorylated ERK in KYSE-520 cells was determined by a method based on homogeneous time-resolved fluorescence HTRF (Cisbio, 64ERKPEG). The fluorescence values (Ex337 nm/Em625/665 nm) were read on the compatible HTRF reader (MD SpectraMax).

KYSE-520 cells = test: KYSE-520 cell proliferation experiment (CellTiter-Glo, 7 days); type: cell-based; details: Homo sapiens
Experimental: The treated cell plate was incubated at 37° C., 5% CO2 for 7 days. CellTiter-Glo (Promega, G7573) was used to determine the number of viable cells in each well of the treated plate. 100 μL of the detection reagent was added to each well, and the plate was incubated at room temperature for 10 minutes. Then, the […] in each well was measured with Envision plate reader (PerkinElmer). […] The IC50 value was further calculated as the compound concentration required for 50% proliferation inhibition in the best-fit curve with […].

[1] = Pharmacokinetics assay in rats; type: in vivo, SD rats; details: rat; for AUC: read-out: Area under curve AUC; for half-life: read-out: Half-life T1/2 (converted)
Experimental: Rats were used as test animals. The drug concentration in plasma at different time points was determined by LC/MS/MS method after intravenous administration or intragastrical administration of the compound of the present invention to rats. The pharmacokinetic behavior of the compound of the present invention was studied and evaluated in rats.
The atropisomer with a RT of 1.495 minutes in Examples 3 and 4, compounds of Example 17, Example 41 and Example 43.
Healthy male SD rats (6-8 weeks old), 3 rats per group.
Intravenous administration: A certain amount of the test compound was weighed, to which 10% by volume of N,N-dimethylacetamide, 33% by volume of triethylene glycol and 57% by volume of water were added to prepare a 1 mg/mL colorless, clear and transparent solution;
Intragastrical administration: A certain amount of the test compound was weighed, to which 0.5% by mass of hypromellose, 0.1% by volume of Tween 80 and 99.4% by volume of water were added to prepare a 1 mg/mL white suspension.
After an overnight fast, the SD rats were intravenously administered the test compound at an administration dose of 1 mg/kg, or intragastrically administered the test compound at an administration dose of 5 mg/kg.
(§1) The rats were intravenously administered the compound of the present invention. 0.2 ml of blood was taken from the jugular vein at 0.083, 0.25, 0.5, 1, 2, 4, 8 and 24 hours after the administration. The samples were placed in tubes containing EDTA-K2, and centrifuged at 4000 rpm and 4° C. for 5 minutes to separate the blood plasma. The plasma samples were stored at −75° C.
as §1, with “Or, the rats” for “The rats”, “were intragastrically” for “were intravenously”, “at” for “at 0.083,”
The content of the test compound in the plasma of rat after intragastrical administration of the test compound at different concentrations was determined: 50 μL of rat plasma at each time after administration was taken, to which 200 μL of a solution (50 ng/mL) of internal standard dexamethasone in acetonitrile was added. The plasma was vortex-mixed for 30 seconds, and centrifuged at 4700 rpm and 4° C. for 15 minutes. The supernatant was taken from the plasma samples, and a three-fold dilution was carried out by adding water. 2.0 μL of the supernatant was used for LC/MS/MS analysis.

[2] = molecular target: T1, SHP2 wild-type phosphatase (recombinantly expressed full-length SHP2, aa 1-593) (Homo sapiens, UniProt Q06124); test: In vitro activity on SHP2 wild-type phosphatase (DiFMUP fluorescence); details: wild-type full-length SHP2, activated polypeptide IRS1 0.5 nM, DiFMUP 30 μM;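 also: enzyme preincubated at room temperature, then DiFMUP reaction run at room temperature and halted with SDS, potency derived from a logistic curve fit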
T1 sequence (Q06124 1-593): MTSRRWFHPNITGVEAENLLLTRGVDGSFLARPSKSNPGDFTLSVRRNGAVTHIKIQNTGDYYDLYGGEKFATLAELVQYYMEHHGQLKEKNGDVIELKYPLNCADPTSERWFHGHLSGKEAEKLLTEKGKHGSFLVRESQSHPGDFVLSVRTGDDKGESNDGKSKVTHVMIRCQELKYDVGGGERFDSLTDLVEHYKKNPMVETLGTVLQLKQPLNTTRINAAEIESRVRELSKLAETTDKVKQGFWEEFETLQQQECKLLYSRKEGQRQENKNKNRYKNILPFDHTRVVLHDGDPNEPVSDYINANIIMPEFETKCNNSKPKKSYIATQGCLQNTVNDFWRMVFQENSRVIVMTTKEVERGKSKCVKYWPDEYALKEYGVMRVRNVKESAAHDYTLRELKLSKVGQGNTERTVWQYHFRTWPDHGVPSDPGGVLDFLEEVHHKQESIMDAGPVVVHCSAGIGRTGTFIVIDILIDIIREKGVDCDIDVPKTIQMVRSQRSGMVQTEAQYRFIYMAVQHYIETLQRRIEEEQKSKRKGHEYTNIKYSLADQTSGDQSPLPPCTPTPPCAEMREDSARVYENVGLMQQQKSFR
Experimental: 0.2 nM recombinantly expressed full-length SHP2 (aa 1-593), 0.5 nM activated polypeptide IRS1 with double phosphorylation sites (sequence: H2N-LN(pY)IDLDLY(dPEG8)LST(pY)ASINFQK-amide) and a series of concentrations of the test compound (final concentrations were 1 μM, 0.3 μM, 0.1 μM, 0.03 μM, 0.01 μM, 0.003 μM, 0.001 μM, 0.0003 μM, 0.0001 μM, 0.00003 μM) were added to the phosphatase reaction solution (60 mM HEPES, pH 7.5 0.005% Brij-35, 75 mM NaCl, 75 mM KCl, 1 mM EDTA, 5 mM DTT). The reaction solution was shaked (350 rpm) at room temperature for 30 minutes. The reaction substrate DiFMUP with a final concentration of 30 μM was added, and the reaction solution was reacted at room temperature for 30 minutes. The phosphatase reaction was stopped by adding 5 μL of stop solution (60 mM HEPES, pH 7.5, 0.2% SDS). Ex358 nm/Em455 fluorescence value was read on the fluorescence plate reader MD SpectraMax.
The IC50 value of the compound was calculated using the four-parameter logit method. In the following formula, x represents the logarithmic form of the compound concentration, and F(x) represents the effect value (the inhibition rate of cell proliferation under the given concentration condition): F(x)=((A−D)/(1+((x/C)^B)))+D. A, B, C and D are four parameters. Different concentrations correspond to different inhibition rates, based on which an inverse curve was plotted, and the IC50 of the inhibitor was calculated from the curve. The IC50 of the compound was calculated with Primer premier 6.0.

hERG potassium channel = molecular target: T2, hERG potassium channel (Homo sapiens, UniProt Q12809); test: hERG current inhibition experiment (manual patch clamp, CHO hERG cells); type: cell-based; details: whole-cell patch clamp, tail current
T2 construct: host or cells: CHO hERG cells
Experimental: In this experiment, whole-cell current recording was performed using a manual patch clamp system (HEKA EPC-10 signal amplification and digital conversion system, purchased from HEKA Electronic, Germany). The round glass slide of which surface CHO hERG cells (provided by Sophion Bioscience Inc., Denmark, the cell generation number was P21) were grown on was placed in an electrophysiological recording slot under an inverted microscope. The recording slot was continuously perfused with extracellular fluid (approximately 1 mL per minute). Conventional whole-cell patch clamp current recording technique was used in the experiment. The experiments were performed at normal room temperature (˜25° C.). The cells were clamped at a voltage of −80 mV. Cell patch clamp voltage was depolarized to +20 mV to activate hERG potassium channel, and to −50 mV after 5 seconds to eliminate inactivation and generate tail currents. The tail current peak was used as a value of hERG current. When the hERG potassium current recorded in the above steps became steady under continuous perfusion of the extracellular fluid in the recording slot, the drug to be tested could be added to the perfusion, until the inhibition effect of the drug on hERG current reached a steady state. Generally, the overlapping of most recent three consecutive current recording lines was used as a criterion to determine whether the state was stable. After reaching the steady state, the recording slot was perfused with extracellular fluid until the hERG current returned to the value before the drug adding. The test data was analyzed by HEKA Patchmaster (V2x73.2), Microsoft Excel and the data analysis software provided by Graphpad Prism 5.0.

T2 sequence (Q12809 whole entry): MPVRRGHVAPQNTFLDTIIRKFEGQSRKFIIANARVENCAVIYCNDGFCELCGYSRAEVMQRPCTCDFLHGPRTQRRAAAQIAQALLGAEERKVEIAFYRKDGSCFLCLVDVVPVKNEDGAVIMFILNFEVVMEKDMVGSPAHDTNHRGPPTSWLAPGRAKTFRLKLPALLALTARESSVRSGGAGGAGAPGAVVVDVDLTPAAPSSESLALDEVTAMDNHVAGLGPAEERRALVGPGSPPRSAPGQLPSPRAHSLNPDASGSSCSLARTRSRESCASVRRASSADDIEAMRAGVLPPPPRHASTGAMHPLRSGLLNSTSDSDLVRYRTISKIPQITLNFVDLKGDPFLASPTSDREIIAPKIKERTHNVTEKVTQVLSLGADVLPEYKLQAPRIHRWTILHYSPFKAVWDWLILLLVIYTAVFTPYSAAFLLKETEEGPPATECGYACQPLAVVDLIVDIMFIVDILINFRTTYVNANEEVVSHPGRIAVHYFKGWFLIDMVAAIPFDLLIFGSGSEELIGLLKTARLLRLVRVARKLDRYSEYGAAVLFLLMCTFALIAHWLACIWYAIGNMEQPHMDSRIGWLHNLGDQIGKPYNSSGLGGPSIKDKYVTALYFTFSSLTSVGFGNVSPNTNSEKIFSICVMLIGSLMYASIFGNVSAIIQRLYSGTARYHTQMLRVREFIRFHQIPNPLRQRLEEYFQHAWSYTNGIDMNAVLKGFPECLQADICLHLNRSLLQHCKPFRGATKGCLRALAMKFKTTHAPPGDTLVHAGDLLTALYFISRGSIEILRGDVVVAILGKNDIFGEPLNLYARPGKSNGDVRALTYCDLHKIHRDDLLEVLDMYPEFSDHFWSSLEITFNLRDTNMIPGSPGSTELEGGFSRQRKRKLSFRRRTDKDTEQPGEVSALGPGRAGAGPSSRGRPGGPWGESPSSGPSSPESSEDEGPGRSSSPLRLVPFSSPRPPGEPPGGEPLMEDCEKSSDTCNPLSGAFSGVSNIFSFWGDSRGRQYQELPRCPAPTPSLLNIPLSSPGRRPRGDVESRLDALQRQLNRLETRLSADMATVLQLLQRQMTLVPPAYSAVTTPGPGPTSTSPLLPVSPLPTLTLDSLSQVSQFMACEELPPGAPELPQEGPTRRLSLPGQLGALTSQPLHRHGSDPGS

IC50 (p-ERK in KYSE-520 cells; Homo sapiens, KYSE-520, 2 h) | IC50 [2] | SMILES | IC50 (KYSE-520 cells) | further results
8 nM | 1.7 nM | Nc1nccc(Sc2cnc(N3CCC4(CC3)Cc3ncccc3[C@H]4N)n3ccnc23)c1Cl [Example 27, (S)-1′-(8-((2-Amino-3-chloropyridin-4-yl)thio)imidazo[1,2-c]pyrimidin-5-yl)-5,7-dihydrospiro[cyclopenta[b]pyridine-6,4′-piperidin]-5-amine] | 31.5 nM | 
8.6 nM | 2.6 nM | Nc1nc(N2CCC3(CC2)Cc2ncccc2[C@H]3N)n2ccnc2c1Sc1cccnc1C(F)(F)F [Example 28, (S)-1′-(7-Amino-8-((2-(trifluoromethyl)pyridin-3-yl)thio)imidazo[1,2-c]pyrimidin-5-yl)-5,7-dihydrospiro[cyclopenta[b]pyridine-6,4′-piperidin]-5-amine] | 21.6 nM | 
6.1 nM | 1.4 nM | Nc1nc(N2CCC3(CC2)Cc2ccccc2[C@H]3N)n2ccnc2c1Sc1cccnc1C(F)(F)F [Example 30, (S)-1′-(7-Amino-8-((2-(trifluoromethyl)pyridin-3-yl)thio)imidazo[1,2-c]pyrimidin-5-yl)-1,3-dihydrospiro[indene-2,4′-piperidin]-1-amine] | 8.9 nM | 
6.5 nM | 3.4 nM | N[C@@H]1c2ccccc2CC12CCN(c1ncc(Sc3cccnc3C(F)(F)F)c3nccn13)CC2 [Example 31, (S)-1′-(8-((2-(Trifluoromethyl)pyridin-3-yl)thio)imidazo[1,2-c]pyrimidin-5-yl)-1,3-dihydro spiro[indene-2,4′-piperidin]-1-amine] | 52 nM | 
2.7 nM | 1 nM | Nc1nccc(Sc2cnc(N3CCC4(CC3)Cc3ccccc3[C@H]4N)n3ccnc23)c1Cl [Example 32, (S)-1′-(8-((2-Amino-3-chloropyridin-4-yl)thio)imidazo[1,2-c]pyrimidin-5-yl)-1,3-dihydrospiro[indene-2,4′-piperidin]-1-amine] | 12.9 nM | 
5.4 nM | 2.8 nM | N[C@@H]1c2cccnc2CC12CCN(c1ncc(Sc3cccnc3C(F)(F)F)c3nccn13)CC2 [Example 34, (S)-1′-(8-((2-(Trifluoromethyl)pyridin-3-yl)thio)imidazo[1,2-c]pyrimidin-5-yl)-5,7-dihydro spiro[cyclopenta[b]pyridine-6,4′-piperidin]-5-amine] | 92.5 nM | 
8.6 nM | 4 nM | CNc1nccc(Sc2cnc(N3CCC4(CC3)Cc3ncccc3[C@H]4N)n3ccnc23)c1F [Example 37, (S)-1′-(8-((3-Fluoro-2-(methylamino)pyridin-4-yl)thio)imidazo[1,2-c]pyrimidin-5-yl)-5,7-dihydrospiro[cyclopenta[b]pyridine-6,4′-piperidin]-5-amine] | 37 nM | 
7.9 nM | 1 nM | CC1(O)CN(c2nccc(Sc3cnc(N4CCC5(CC4)Cc4ncccc4[C@H]5N)n4ccnc34)c2Cl)C1 [Example 39, (S)-1-(4-((5-(5-Amino-5,7-dihydrospiro[cyclopenta[b]pyridine-6,4′-piperidin]-1′-yl)imidazo[1,2-c]pyrimidin-8-yl)thio)-3-chloropyridin-2-yl)-3-methylazetidin-3-ol] | 24.1 nM | IC50 (p-ERK in KYSE-520 cells; 2 hours): 10.3 nM
6.5 nM | 1.4 nM | N[C@@H]1c2cccnc2CC12CCN(c1ncc(Sc3ccnc(N4CCOCC4)c3Cl)c3nccn13)CC2 [Example 40, (S)-1′-(8-((3-Chloro-2-morpholinopyridin-4-yl)thio)imidazo[1,2-c]pyrimidin-5-yl)-5,7-dihydrospiro[cyclopenta[b]pyridine-6,4′-piperidin]-5-amine] | 27.3 nM | 

SMILES | IC50 (p-ERK in KYSE-520 cells; Homo sapiens, KYSE-520, 2 h) | IC50 [2] | IC50 (KYSE-520 cells) | further results
Cc1nc(N2CCC3(CC2)CO[C@@H](C)[C@H]3N)n2ccnc2c1-c1cccc(Cl)c1Cl (single isomer, unassigned) [The atropisomer with a RT of 1.495 minutes in Examples 3 and 4] | 39 nM | 0.7 nM | 126 nM | AUC ([1]; male, SD, plasma, IV 1 mg/kg): 3130 ± 300 ng·h/mL; clearance ([1]; male, SD, plasma, IV 1 mg/kg, read-out: Clearance CL_obs): 5.13 ± 0.59 mL/min/kg; half-life ([1]; male, SD, plasma, IV 1 mg/kg): 5.5 ± 0.59 h; bioavailability ([1]; male, SD, plasma, PO 5 mg/kg vs IV 1 mg/kg, read-out: Bioavailability F): 82.6 ± 17.8%; AUC ([1]; male, SD, plasma, PO 5 mg/kg): 12500 ± 2470 ng·h/mL; half-life ([1]; male, SD, plasma, PO 5 mg/kg): 6.18 ± 0.61 h; Cmax ([1]; male, SD, plasma, PO 5 mg/kg, read-out: Maximum plasma concentration Cmax): 1220 ± 220 ng/mL; Apparent distribution volume Vss_obs ([1]; IV 1 mg/kg): 2.03 ± 0.15 L/kg
Cc1nc(N2CCC3(CCC[C@H]3N)CC2)n2ccnc2c1-c1cccc(Cl)c1Cl [Example 1, (R)-8-(8-(2,3-Dichlorophenyl)-7-methylimidazo[1,2-c]pyrimidin-5-yl)-8-azaspiro[4.5]decan-1-amine] | 383 nM | 4.5 nM | 723 nM | IC50 (hERG potassium channel): 2130 nM
Cc1nc(N2CCC3(CC2)CO[C@@H](C)[C@H]3N)n2ccnc2c1-c1cccc(Cl)c1Cl [Example 2, (3S,4S)-8-(8-(2,3-Dichlorophenyl)-7-methylimidazo[1,2-c]pyrimidin-5-yl)-3-methyl-2-oxa-8-azaspiro[4.5]decan-4-amine] | 40.5 nM | 1.1 nM | 186 nM | IC50 (hERG potassium channel): 2610 nM
